Reference: patent publication US8404679B2, “Pyrrolidine derivatives as NK2 receptor antagonists” (Hoffmann-La Roche Inc., priority 2008, dated 2013)

What follows are compounds tested against T1, human NK2 receptor (Homo sapiens, UniProt P21452) (assay: [3H]SR48968 competition binding assay). Details: [3H]SR48968 displacement, membranes of CHO cells stably expressing recombinant human NK2 receptor; Ki from IC50 by Cheng-Prussoff.
T1 construct: purchased Perkin Elmer biosignal Inc. 6110510
T1 sequence (P21452 1-398): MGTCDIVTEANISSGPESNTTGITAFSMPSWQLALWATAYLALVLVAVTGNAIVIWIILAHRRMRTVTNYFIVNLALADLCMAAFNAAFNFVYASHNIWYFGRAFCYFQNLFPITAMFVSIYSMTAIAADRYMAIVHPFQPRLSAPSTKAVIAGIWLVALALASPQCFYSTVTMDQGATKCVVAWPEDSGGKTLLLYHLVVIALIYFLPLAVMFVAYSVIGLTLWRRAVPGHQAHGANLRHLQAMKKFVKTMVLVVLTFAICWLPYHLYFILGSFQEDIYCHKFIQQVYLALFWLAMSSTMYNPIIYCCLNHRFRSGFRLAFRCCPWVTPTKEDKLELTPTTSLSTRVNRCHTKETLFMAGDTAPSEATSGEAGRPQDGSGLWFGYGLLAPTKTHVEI
Procedure, shortened: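 Membranes from CHO cells stably expressing recombinant human NK2 were incubated 75 min at RT with [3H]SR48968 at its KD and 10 compound concentrations (0.0003–10 μM) in Tris-HCl pH 7.4, MnCl2, chymostatin, BSA. Filter-bound radioactivity was counted; Hill-fitted IC50 converted to Ki via Cheng-Prusoff.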

Compound	Ki
COc1ccc(C(=O)N(C)[C@H]2CN(C(=O)C3CCNCC3)C[C@@H]2c2ccc(Cl)cc2)cc1C(F)(F)F (racemic) [Example 103, N-[(3RS,4SR)-4-(4-Chloro-phenyl)-1-(piperidine-4-carbonyl)-pyrrolidin-3-yl]-4-methoxy-N-methyl-3-trifluoromethyl-benzamide]	7 nM
CN(C(=O)c1ccc(Cl)c(C2CC2)c1)[C@H]1CN(C(=O)C2CCN(C(=O)C3(C)CC3)CC2)C[C@@H]1c1ccc(Cl)c(Cl)c1 (racemic) [Example 173, 4-Chloro-3-cyclopropyl-N-{(3RS,4SR)-4-(3,4-dichloro-phenyl)-1-[1-(1-methyl-cyclopropanecarbonyl)-piperidine-4-carbonyl]-pyrrolidin-3-yl}-N-methyl-benzamide]	1.7 nM
CN(C(=O)c1ccc2c(c1)CCO2)[C@@H]1CN(C(=O)N2CCN(S(C)(=O)=O)CC2)C[C@H]1c1ccc(Cl)c(Cl)c1 (racemic) [Example 31, rac-2,3-Dihydro-benzofuran-5-carboxylic acid [(3S,4R)-4-(3,4-dichloro-phenyl)-1-(4-methanesulfonyl-piperazine-1-carbonyl)-pyrrolidin-3-yl]-methyl-amide]	14.8 nM
COc1ccc(C(=O)N(C)[C@H]2CN(C(=O)C3CCNCC3)C[C@@H]2c2ccc(Cl)c(Cl)c2)cc1C(F)(F)F (racemic) [Example 133, N-[(3RS,4SR)-4-(3,4-Dichloro-phenyl)-1-(piperidine-4-carbonyl)-pyrrolidin-3-yl]-4-methoxy-N-methyl-3-trifluoromethyl-benzamide]	0.2 nM
CN(C(=O)c1ccc(F)cc1)[C@H]1CN(C(=O)C2CCN(C(=O)C3(C)CC3)CC2)C[C@@H]1c1ccc(Cl)c(Cl)c1 (racemic) [Example 100, N-{(3RS,4SR)-4-(3,4-Dichloro-phenyl)-1-[1-(1-methyl-cyclopropanecarbonyl)-piperidine-4-carbonyl]-pyrrolidin-3-yl}-4-fluoro-N-methyl-benzamide]	2.3 nM
CN(C(=O)c1ccc(Cl)c(C(F)(F)F)c1)[C@H]1CN(C(=O)C2CCNCC2)C[C@@H]1c1ccc(Cl)cc1 (racemic) [Example 160, 4-Chloro-N-[(3RS,4SR)-4-(4-chloro-phenyl)-1-(piperidine-4-carbonyl)-pyrrolidin-3-yl]-N-methyl-3-trifluoromethyl-benzamide]	5 nM
CN(C(=O)c1ccc(Cl)cn1)[C@H]1CN(C(=O)C2CCN(C(=O)C3(C)CC3)CC2)C[C@@H]1c1ccc(Cl)c(Cl)c1 (racemic) [Example 108, 5-Chloro-pyridine-2-carboxylic acid {(3RS,4SR)-4-(3,4-dichloro-phenyl)-1-[1-(1-methyl-cyclopropanecarbonyl)-piperidine-4-carbonyl]-pyrrolidin-3-yl}-methyl-amide]	2.6 nM
CN(C(=O)c1ccc(C#N)cc1)[C@@H]1CN(C(=O)N2CCN(S(C)(=O)=O)CC2)C[C@H]1c1ccc(Cl)c(Cl)c1 (racemic) [Example 13, rac-4-Cyano-N-[(3S,4R)-4-(3,4-dichloro-phenyl)-1-(4-methanesulfonyl-piperazine-1-carbonyl)-pyrrolidin-3-yl]-N-methyl-benzamide]	23.7 nM
COc1ccc(C(=O)N(C)[C@H]2CN(C(=O)c3ccc(C#N)cc3)C[C@@H]2c2ccc(Cl)cc2)cc1C(F)(F)F (racemic) [Example 92, N-[(3RS,4SR)-4-(4-Chloro-phenyl)-1-(4-cyano-benzoyl)-pyrrolidin-3-yl]-4-methoxy-N-methyl-3-trifluoromethyl-benzamide]	13.9 nM
CN(C(=O)c1ccc(C(F)(F)F)c(F)c1)[C@@H]1CN(C(=O)N2CCN(S(C)(=O)=O)CC2)C[C@H]1c1ccc(Cl)c(Cl)c1 (racemic) [Example 20, rac-N-[(3S,4R)-4-(3,4-Dichloro-phenyl)-1-(4-methanesulfonyl-piperazine-1-carbonyl)-pyrrolidin-3-yl]-3-fluoro-N-methyl-4-trifluoromethyl-benzamide]	2.44 nM

Other lines, results leading:

Ki	Compound
2.98 nM	COc1ccc(C(=O)N(C)[C@@H]2CN(C(=O)c3ccc(N(C)C)cc3)C[C@H]2c2ccc(Cl)c(Cl)c2)cc1C(F)(F)F (racemic) [Example 45, rac-N-[(3S,4R)-4-(3,4-Dichloro-phenyl)-1-(4-dimethylamino-benzoyl)-pyrrolidin-3-yl]-4-methoxy-N-methyl-3-trifluoromethyl-benzamide]
42 nM	CN(C(=O)c1ccc(Cl)c(C2CC2)c1)[C@H]1CN(C(=O)C2CCN(C(=O)C3(C)CC3)CC2)C[C@@H]1c1ccc(Cl)c(Cl)c1 [Example 175, 4-Chloro-3-cyclopropyl-N-{(3R,4S)-4-(3,4-dichloro-phenyl)-1-[1-(1-methyl-cyclopropanecarbonyl)-piperidine-4-carbonyl]-pyrrolidin-3-yl}-N-methyl-benzamide]
0.7 nM	COc1ccc(C(=O)N(C)[C@H]2CN(C(=O)C3CCN(CCC(C)(C)C)CC3)C[C@@H]2c2ccc(Cl)cc2)cc1C(F)(F)F (racemic) [Example 111, N-{(3RS,4SR)-4-(4-Chloro-phenyl)-1-[1-(3,3-dimethyl-butyl)-piperidine-4-carbonyl]-pyrrolidin-3-yl}-4-methoxy-N-methyl-3-trifluoromethyl-benzamide]
26.9 nM	CN(C(=O)Cc1ccc(F)cc1)C1CN(C(=O)C2CCN(CC3CC3)CC2)CC1c1ccc(Cl)c(Cl)c1 (racemic) [Example 143, N-[(3RS,4RS)-1-(1-Cyclopropylmethyl-piperidine-4-carbonyl)-4-(3,4-dichloro-phenyl)-pyrrolidin-3-yl]-2-(4-fluoro-phenyl)-N-methyl-acetamide]
13.1 nM	CN(C(=O)c1cccc(Cl)c1F)[C@@H]1CN(C(=O)N2CCN(S(C)(=O)=O)CC2)C[C@H]1c1ccc(Cl)c(Cl)c1 (racemic) [Example 21, rac-3-Chloro-N-[(3S,4R)-4-(3,4-dichloro-phenyl)-1-(4-methanesulfonyl-piperazine-1-carbonyl)-pyrrolidin-3-yl]-2-fluoro-N-methyl-benzamide]
96 nM	COc1ncc(C(=O)N(C)[C@@H]2CN(C(=O)c3ccc(C#N)cc3)C[C@H]2c2ccc(Cl)c(Cl)c2)cn1 (racemic) [Example 76, rac-2-Methoxy-pyrimidine-5-carboxylic acid [(3S,4R)-1-(4-cyano-benzoyl)-4-(3,4-dichloro-phenyl)-pyrrolidin-3-yl]-methyl-amide]
11.7 nM	CN(C(=O)c1ccc(OCC(F)(F)F)nc1)[C@@H]1CN(C(=O)c2ccc(C#N)cc2)C[C@H]1c1ccc(Cl)c(Cl)c1 (racemic) [Example 82, rac-N-[(3S,4R)-1-(4-Cyano-benzoyl)-4-(3,4-dichloro-phenyl)-pyrrolidin-3-yl]-N-methyl-6-(2,2,2-trifluoro-ethoxy)-nicotinamide]
8.89 nM	COc1ccc(C(=O)N(C)[C@@H]2CN(C(=O)N3CCN(S(C)(=O)=O)CC3)C[C@H]2c2ccc(Cl)c(Cl)c2)cc1 (racemic) [Example 37, rac-N-[(3S,4R)-4-(3,4-Dichloro-phenyl)-1-(4-methanesulfonyl-piperazine-1-carbonyl)-pyrrolidin-3-yl]-4-methoxy-N-methyl-benzamide]
9.45 nM	COc1ccc(C(=O)N(C)[C@@H]2CN(C(=O)N3CCN(S(C)(=O)=O)CC3)C[C@H]2c2ccc(Cl)c(Cl)c2)cc1F (racemic) [Example 26, rac-N-[(3S,4R)-4-(3,4-Dichloro-phenyl)-1-(4-methanesulfonyl-piperazine-1-carbonyl)-pyrrolidin-3-yl]-3-fluoro-4-methoxy-N-methyl-benzamide]
